In the supplement of paper PMC11368000:

How the values were obtained:
Details in all cases: exposure time: 90 min
1118 [1] = donor line of iPSC-derived cardiomyocytes; assay: POD (EC95) for loss of peak frequency (asystole) vs vehicle; higher = less potent (higher point of departure)
In short: (§1)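 Points of departure specific to each donor were obtained from hierarchical Bayesian Hill fits to vehicle-normalised beat frequency, decay-to-rise ratio or peak frequency. Thresholds were set at 5% change, or 95% loss in the case of peak frequency. The cells were human iPSC-derived cardiomyocytes from 16 donors, exposed for 90 min at 37 °C to 0.1, 1, 10 and 100 µM (final, 0.5% DMSO), with Ca2+ flux read on a FLIPR Tetra before and after exposure.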

1309 [2] = donor line of iPSC-derived cardiomyocytes; assay: as above
In short: as §1

1392 = donor line of iPSC-derived cardiomyocytes; assay: as above
In short: as §1

1516 [3] = donor line of iPSC-derived cardiomyocytes; assay: as above
In short: as §1

1518 [4] = donor line of iPSC-derived cardiomyocytes; assay: as above
In short: as §1

1531 [5] = donor line of iPSC-derived cardiomyocytes; assay: as above
In short: as §1

1565 [6] = donor line of iPSC-derived cardiomyocytes; assay: as above
In short: as §1

1118 [7] = assay: POD (EC05) for decrease in beat frequency (negative chronotrope) vs vehicle; higher = less potent (higher point of departure)
Procedure: (§2)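 Human iPSC-derived cardiomyocytes from 16 donors were exposed for 90 min at 37 °C to each PFAS at 0.1, 1, 10 and 100 µM in 0.5% DMSO, 384-well plates. Kinetic Ca2+ flux (FLIPR) and Hoechst nuclei counts were normalised to vehicle wells and fitted with a hierarchical Bayesian Hill model to give donor-specific PODs: EC05 for beat-rate increase or decrease and for decay-to-rise ratio increase (QT proxy), EC95 for peak-frequency loss (asystole), EC10 for total cell number loss. 0.03 µM is the lower bound.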

11235 = donor line of iPSC-derived cardiomyocytes; assay: as above
Procedure: as §2

1309 [8] = assay: as above
Procedure: as §2

1368 = donor line of iPSC-derived cardiomyocytes; assay: as above
Procedure: as §2

1516 [9] = assay: as above
Procedure: as §2

1518 [10] = assay: as above
Procedure: as §2

1531 [11] = assay: as above
Procedure: as §2

1535 = donor line of iPSC-derived cardiomyocytes; assay: as above
Procedure: as §2

1565 [12] = assay: as above
Procedure: as §2

20032 = donor line of iPSC-derived cardiomyocytes; assay: as above
Procedure: as §2

20084 = donor line of iPSC-derived cardiomyocytes; assay: as above
Procedure: as §2

30145 = donor line of iPSC-derived cardiomyocytes; assay: as above
Procedure: as §2

30171 = donor line of iPSC-derived cardiomyocytes; assay: as above
Procedure: as §2

Row | SMILES | POD vs vehicle 1118 [1] | POD vs vehicle 1309 [2] | POD vs vehicle 1392 | POD vs vehicle 1516 [3] | POD vs vehicle 1518 [4] | POD vs vehicle 1531 [5] | POD vs vehicle 1565 [6] | POD vs vehicle 1118 [7] | POD vs vehicle 11235 | POD vs vehicle 1309 [8] | POD vs vehicle 1368 | POD vs vehicle 1516 [9] | POD vs vehicle 1518 [10] | POD vs vehicle 1531 [11] | POD vs vehicle 1535 | POD vs vehicle 1565 [12] | POD vs vehicle 20032 | POD vs vehicle 20084 | POD vs vehicle 30145 | POD vs vehicle 30171
1 | O=S(=O)(O)C(F)(F)C(F)(F)C(F)(F)C(F)(F)C(F)(F)C(F)(F)C(F)(F)C(F)(F)F [Perfluorooctanesulfonic_acid] | > 100 µM | > 100 µM | > 100 µM | > 100 µM | > 100 µM | > 100 µM | > 100 µM | 10.6 µM | 0.581 µM | > 100 µM | > 100 µM | 20.4 µM | > 100 µM | 59.1 µM | > 100 µM | > 100 µM | > 100 µM | 80.7 µM | > 100 µM | 6.94 µM
2 | OCCC(F)(F)C(F)(F)C(F)(F)C(F)(F)F [4:2 Fluorotelomer alcohol] | 89.1 µM | > 100 µM | > 100 µM | > 100 µM | > 100 µM | > 100 µM | > 100 µM | 22.9 µM | > 100 µM | > 100 µM | > 100 µM | > 100 µM | > 100 µM | > 100 µM | > 100 µM | > 100 µM | > 100 µM | > 100 µM | > 100 µM | > 100 µM
3 | O=C(O)C(F)(F)C(F)(F)C(F)(F)C(F)(F)C(F)(F)C(F)(F)C(F)(F)C(F)(F)C(F)(F)C(F)(F)F [Perfluoroundecanoic_acid] | > 100 µM | > 100 µM | > 100 µM | > 100 µM | > 100 µM | > 100 µM | > 100 µM | > 100 µM | 0.395 µM | > 100 µM | > 100 µM |  | 1.19 µM | > 100 µM | > 100 µM | > 100 µM | > 100 µM | > 100 µM | > 100 µM | 0.96 µM
4 | NC(O)(C(F)(F)F)C(F)(F)F [2-Aminohexafluoropropan-2-ol] | > 100 µM | > 100 µM | > 100 µM | > 100 µM | > 100 µM | > 100 µM | > 100 µM | 16.9 µM | 7.51 µM | > 100 µM | > 100 µM | 22.6 µM | > 100 µM | > 100 µM | 83.8 µM | > 100 µM | 80.9 µM | > 100 µM | > 100 µM | 36.5 µM
5 | CN(CCO)S(=O)(=O)C(F)(F)C(F)(F)C(F)(F)C(F)(F)C(F)(F)C(F)(F)C(F)(F)C(F)(F)F [N-Methyl-N-(2-hydroxyethyl)perfluorooctanesulfonamide] |  | > 100 µM | > 100 µM | > 100 µM | > 100 µM | > 100 µM | > 100 µM |  | 35.4 µM | > 100 µM | > 100 µM | > 100 µM | > 100 µM | > 100 µM | > 100 µM | > 100 µM | > 100 µM | > 100 µM | > 100 µM | 20.2 µM
6 | COC(=O)C(F)(F)C(F)(F)OC(F)(C(F)(F)F)C(F)(F)OC(F)=C(F)F (configuration not stated) [Methyl_perfluoro(3-(1-ethenyloxypropan-2-yloxy)propanoate)] | > 100 µM | > 100 µM | > 100 µM | > 100 µM | > 100 µM | > 100 µM | > 100 µM | > 100 µM | > 100 µM | > 100 µM | > 100 µM | > 100 µM | > 100 µM | > 100 µM | > 100 µM | > 100 µM | > 100 µM | > 100 µM | > 100 µM | > 100 µM
7 | NC(=O)C(F)(F)C(F)(F)C(F)(F)C(F)F | > 100 µM | > 100 µM | > 100 µM | > 100 µM | > 100 µM | > 100 µM | > 100 µM | > 100 µM | > 100 µM | > 100 µM | > 100 µM | > 100 µM | > 100 µM | > 100 µM | > 100 µM | > 100 µM | > 100 µM | > 100 µM | > 100 µM | > 100 µM
8 | O=C(O)C(F)(F)C(F)(F)C(F)(F)OC(F)(C(F)(F)F)C(F)(F)F [Perfluoro-4-isopropoxybutanoic_acid] | > 100 µM | > 100 µM | > 100 µM | > 100 µM | > 100 µM | > 100 µM | > 100 µM | > 100 µM | > 100 µM | > 100 µM | > 100 µM | > 100 µM | > 100 µM | > 100 µM | > 100 µM | > 100 µM | > 100 µM | > 100 µM | > 100 µM | > 100 µM
9 | OCC(O)CC(F)(F)C(F)(F)C(F)(F)C(F)(F)C(F)(F)C(F)(F)C(F)(F)C(F)(F)F (configuration not stated) [1-(Perfluorofluorooctyl)propane-2,3-diol] | 1.19 µM | > 100 µM | > 100 µM | > 100 µM | > 100 µM | > 100 µM | > 100 µM | 0.258 µM | > 100 µM | > 100 µM | > 100 µM | > 100 µM | > 100 µM | > 100 µM | > 100 µM | > 100 µM | > 100 µM | > 100 µM | > 100 µM | > 100 µM
10 | NC(=O)C(F)(F)C(F)(F)C(F)(F)C(F)(F)F [Nonafluoropentanamide] | 84.9 µM | > 100 µM | > 100 µM | > 100 µM | > 100 µM | > 100 µM | > 100 µM | 17.3 µM | > 100 µM | > 100 µM | > 100 µM | > 100 µM | > 100 µM | > 100 µM | > 100 µM | > 100 µM | > 100 µM | > 100 µM | > 100 µM | > 100 µM
